# Values joined by “and” are separate entries in the source; they are usually repeats but may differ in a detail not shown here. Equal values may be shown once. Results filed as inconclusive are left out.
# Test system: BDF1 mice, s.c. Lewis lung carcinoma, T/C %
# Experiment: NCI In Vivo Anticancer Drug Screen. Data for tumor model Lewis Lung Carcinoma (subcutaneous) in B6D2F1 (BDF1) mice
# Outline: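 Tumor-bearing mice were treated with test compound, and either survival or tumor size was recorded. Values are the treated-group measurement divided by that of the vehicle-treated control group.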
# [1] = endpoint: median survival time, dose: 1.25 mg/kg/injection, schedule: Q01DX009 (ip), vehicle: Klucel (hydroxypropylcellulose) (HPC), higher = longer survival
# [2] = endpoint: median survival time, dose: 2.5 mg/kg/injection, schedule: Q01DX009 (ip), vehicle: Klucel (hydroxypropylcellulose) (HPC), higher = longer survival
# [3] = endpoint: median survival time, dose: 5.0 mg/kg/injection, schedule: Q01DX009 (ip), vehicle: Klucel (hydroxypropylcellulose) (HPC), higher = longer survival
# [4] = endpoint: median survival time, dose: 50.0 mg/kg/injection, schedule: Q01DX009 (ip), vehicle: other, higher = longer survival
structure (smiles),measurement,setting,value
C/C=C(\C)C(=O)OC1C(C)C2(O)C(C=C(CO)CC3(O)C(=O)C(C)=CC32)C2C(C)(C)C12OC(=O)CCCCCCCCC (stereo unspecified),T/C,"endpoint: median survival time, dose: 0.13 mg/kg/injection, schedule: Q01DX009 (ip), vehicle: saline + alcohol, higher = longer survival",103 % of control
same,T/C,"endpoint: median survival time, dose: 0.25 mg/kg/injection, schedule: Q01DX009 (ip), vehicle: saline + alcohol, higher = longer survival",95 % of control
same,T/C,"endpoint: median survival time, dose: 0.5 mg/kg/injection, schedule: Q01DX009 (ip), vehicle: saline + alcohol, higher = longer survival",92 % of control
CC(=O)CC(C)(C)N,T/C,"endpoint: mean tumor weight, dose: 15.0 mg/kg/injection, schedule: Q01DX011 (ip), vehicle: saline, higher = larger tumour",118 % of control
same,T/C,"endpoint: mean tumor weight, dose: 33.0 mg/kg/injection, schedule: Q01DX011 (ip), vehicle: saline, higher = larger tumour",101 % of control
same,T/C,"endpoint: mean tumor weight, dose: 50.0 mg/kg/injection, schedule: Q01DX011 (ip), vehicle: methylcellulose (MC), higher = larger tumour",50 % of control
same,T/C,"endpoint: mean tumor weight, dose: 50.0 mg/kg/injection, schedule: Q01DX011 (ip), vehicle: saline, higher = larger tumour",120 % of control
same,T/C,"endpoint: mean tumor weight, dose: 75.0 mg/kg/injection, schedule: Q01DX011 (ip), vehicle: methylcellulose (MC), higher = larger tumour",91 % of control
same,T/C,"endpoint: mean tumor weight, dose: 100.0 mg/kg/injection, schedule: Q01DX011 (ip), vehicle: methylcellulose (MC), higher = larger tumour",30 % of control
CCCCCC[N+](CCCCCC)(CCCCCC)CCCCCC,T/C,"endpoint: median survival time, dose: 0.75 mg/kg/injection, schedule: Q01DX009 (ip), vehicle: Klucel (hydroxypropylcellulose) (HPC), higher = longer survival",110 % of control
same,T/C,"endpoint: median survival time, dose: 1.5 mg/kg/injection, schedule: Q01DX009 (ip), vehicle: Klucel (hydroxypropylcellulose) (HPC), higher = longer survival",91 % of control
same,T/C,"endpoint: median survival time, dose: 3.0 mg/kg/injection, schedule: Q01DX009 (ip), vehicle: Klucel (hydroxypropylcellulose) (HPC), higher = longer survival",102 % of control
O=[N+]([O-])c1ccc2c(N=Nc3c(O)ccc4ccccc34)c(O)cc(S(=O)(=O)O)c2c1,T/C,"endpoint: mean tumor weight, dose: 180.0 mg/kg/injection, schedule: Q01DX011 (ip), vehicle: saline, higher = larger tumour",59 % of control
same,T/C,"endpoint: mean tumor weight, dose: 265.0 mg/kg/injection, schedule: Q01DX011 (ip), vehicle: saline, higher = larger tumour",50 % of control
same,T/C,"endpoint: median survival time, dose: 50.0 mg/kg/injection, schedule: Q01DX009 (ip), vehicle: saline, higher = longer survival",111 % of control
same,T/C,"endpoint: median survival time, dose: 100.0 mg/kg/injection, schedule: Q01DX009 (ip), vehicle: saline, higher = longer survival",98 % of control
same,T/C,"endpoint: median survival time, dose: 200.0 mg/kg/injection, schedule: Q01DX009 (ip), vehicle: saline, higher = longer survival",95 % of control
Cc1cc(C)nc(NS(=O)(=O)c2ccc(N=Nc3nc4[nH]c(N)nc(=S)c4[nH]3)cc2)n1,T/C,"endpoint: median survival time, dose: 0.78 mg/kg/injection, schedule: Q01DX009 (ip), vehicle: Klucel (hydroxypropylcellulose) (HPC), higher = longer survival",96 % of control
same,T/C,"endpoint: median survival time, dose: 1.56 mg/kg/injection, schedule: Q01DX009 (ip), vehicle: Klucel (hydroxypropylcellulose) (HPC), higher = longer survival",108 % of control
C/C=C(\C)C(=O)O[C@@H]1c2cc3c(cc2-c2c(cc(OC)c(OC)c2OC)[C@@H]2C(=O)OC[C@@H]12)OCO3,T/C,[1],99 % of control
same,T/C,[2],110 % of control
same,T/C,[3],101 % of control
O=[N+]([O-])c1cc([N+](=O)[O-])c(Br)cc1Cl,T/C,[2],104 % of control
same,T/C,[3],97 % of control
same,T/C,"endpoint: median survival time, dose: 10.0 mg/kg/injection, schedule: Q01DX009 (ip), vehicle: Klucel (hydroxypropylcellulose) (HPC), higher = longer survival",105 % of control
COc1cc(NS(C)(=O)=O)ccc1Nc1c2ccccc2nc2c(C)cccc12,T/C,[1],103 % of control
same,T/C,[3],121 % of control
O=C1c2c(Cl)c(Cl)c(Cl)c(Cl)c2C(=O)N1c1nccs1,T/C,"endpoint: mean tumor weight, dose: 25.0 mg/kg/injection, schedule: Q01DX011 (ip), vehicle: carboxymethylcellulose (CMC), higher = larger tumour",62 % of control
same,T/C,"endpoint: mean tumor weight, dose: 50.0 mg/kg/injection, schedule: Q01DX011 (ip), vehicle: carboxymethylcellulose (CMC), higher = larger tumour",50 % of control
O=NN(CCCl)C(=O)NCCCl,T/C,"endpoint: mean tumor weight, dose: 1.57 mg/kg/injection, schedule: Q01DX011 (ip), vehicle: saline, higher = larger tumour",78 % of control
same,T/C,"endpoint: mean tumor weight, dose: 3.13 mg/kg/injection, schedule: Q01DX011 (ip), vehicle: saline, higher = larger tumour",56 % of control
same,T/C,"endpoint: mean tumor weight, dose: 4.0 mg/kg/injection, schedule: Q01DX011 (ip), vehicle: other, higher = larger tumour",41 % of control
same,T/C,"endpoint: mean tumor weight, dose: 6.25 mg/kg/injection, schedule: Q01DX011 (ip), vehicle: saline, higher = larger tumour",4 % of control and 14 % of control
same,T/C,"endpoint: mean tumor weight, dose: 12.5 mg/kg/injection, schedule: Q01DX011 (ip), vehicle: saline, higher = larger tumour",3 % of control
same,T/C,"endpoint: median survival time, dose: 0.5 mg/kg/injection, schedule: Q08HX024 (ip), vehicle: Klucel (hydroxypropylcellulose) (HPC), higher = longer survival",90 % of control
same,T/C,"endpoint: median survival time, dose: 1.0 mg/kg/injection, schedule: Q08HX024 (ip), vehicle: Klucel (hydroxypropylcellulose) (HPC), higher = longer survival",91 % of control
same,T/C,"endpoint: median survival time, dose: 5.0 mg/kg/injection, schedule: Q01DX001 (ip), vehicle: Klucel (hydroxypropylcellulose) (HPC), higher = longer survival",108 % of control
same,T/C,"endpoint: median survival time, dose: 5.0 mg/kg/injection, schedule: Q01DX001 (ip), vehicle: saline + alcohol, higher = longer survival",100 % of control and 104 % of control
same,T/C,"endpoint: median survival time, dose: 5.0 mg/kg/injection, schedule: Q01DX001 (ip), vehicle: saline with Tween-80, higher = longer survival",113 % of control
same,T/C,"endpoint: median survival time, dose: 6.7 mg/kg/injection, schedule: Q01DX005 (ip), vehicle: saline + alcohol, higher = longer survival",113 % of control
same,T/C,"endpoint: median survival time, dose: 10.0 mg/kg/injection, schedule: Q01DX001 (ip), vehicle: Klucel (hydroxypropylcellulose) (HPC), higher = longer survival",120 % of control
same,T/C,"endpoint: median survival time, dose: 10.0 mg/kg/injection, schedule: Q01DX001 (ip), vehicle: saline + alcohol, higher = longer survival",96 % of control and 116 % of control
same,T/C,"endpoint: median survival time, dose: 10.0 mg/kg/injection, schedule: Q01DX001 (ip), vehicle: saline with Tween-80, higher = longer survival",99 % of control and 102 % of control
same,T/C,"endpoint: median survival time, dose: 13.0 mg/kg/injection, schedule: Q01DX001 (ip), vehicle: saline + alcohol, higher = longer survival",100 % of control
same,T/C,"endpoint: median survival time, dose: 13.5 mg/kg/injection, schedule: Q01DX001 (ip), vehicle: Klucel (hydroxypropylcellulose) (HPC), higher = longer survival",160 % of control
same,T/C,"endpoint: median survival time, dose: 15.0 mg/kg/injection, schedule: Q01DX005 (ip), vehicle: saline + alcohol, higher = longer survival",71 % of control and 85 % of control
same,T/C,"endpoint: median survival time, dose: 20.0 mg/kg/injection, schedule: Q01DX001 (ip), vehicle: Klucel (hydroxypropylcellulose) (HPC), higher = longer survival",117 % of control
same,T/C,"endpoint: median survival time, dose: 20.0 mg/kg/injection, schedule: Q01DX001 (ip), vehicle: saline + alcohol, higher = longer survival",104 % of control and 121 % of control
same,T/C,"endpoint: median survival time, dose: 20.0 mg/kg/injection, schedule: Q01DX001 (ip), vehicle: saline with Tween-80, higher = longer survival",111 % of control and 119 % of control
same,T/C,"endpoint: median survival time, dose: 26.0 mg/kg/injection, schedule: Q01DX001 (ip), vehicle: saline + alcohol, higher = longer survival",117 % of control
same,T/C,"endpoint: median survival time, dose: 27.0 mg/kg/injection, schedule: Q01DX001 (ip), vehicle: Klucel (hydroxypropylcellulose) (HPC), higher = longer survival",105 % of control
same,T/C,"endpoint: median survival time, dose: 30.0 mg/kg/injection, schedule: Q01DX001 (ip), vehicle: saline + alcohol, higher = longer survival",163 % of control
same,T/C,"endpoint: median survival time, dose: 39.0 mg/kg/injection, schedule: Q01DX001 (ip), vehicle: saline + alcohol, higher = longer survival",100 % of control
same,T/C,"endpoint: median survival time, dose: 40.0 mg/kg/injection, schedule: Q01DX001 (ip), vehicle: Klucel (hydroxypropylcellulose) (HPC), higher = longer survival",156 % of control
same,T/C,"endpoint: median survival time, dose: 40.0 mg/kg/injection, schedule: Q01DX001 (ip), vehicle: saline with Tween-80, higher = longer survival",121 % of control
same,T/C,"endpoint: median survival time, dose: 80.0 mg/kg/injection, schedule: Q01DX001 (ip), vehicle: Klucel (hydroxypropylcellulose) (HPC), higher = longer survival",217 % of control
same,T/C,"endpoint: median survival time, dose: 80.0 mg/kg/injection, schedule: Q01DX001 (ip), vehicle: saline + alcohol, higher = longer survival",95 % of control
same,T/C,"endpoint: median tumor weight (est.), dose: 14.0 mg/kg/injection, schedule: Q01DX001 (ip), vehicle: saline + alcohol, higher = larger tumour",70 % of control
same,T/C,"endpoint: median tumor weight (est.), dose: 27.0 mg/kg/injection, schedule: Q01DX001 (ip), vehicle: saline + alcohol, higher = larger tumour",65 % of control
same,T/C,"endpoint: median tumor weight (est.), dose: 41.0 mg/kg/injection, schedule: Q01DX001 (ip), vehicle: saline + alcohol, higher = larger tumour",34 % of control
COC1C(OC(=O)c2ccc(C)[nH]2)C(O)C(Oc2ccc3c(O)c(NC(=O)c4ccc(O)c(CC=C(C)C)c4)c(=O)oc3c2Cl)OC1(C)C (stereo unspecified),T/C,"endpoint: median survival time, dose: 0.38 mg/kg/injection, schedule: Q01DX009 (ip), vehicle: other, higher = longer survival",113 % of control
same,T/C,"endpoint: median survival time, dose: 0.75 mg/kg/injection, schedule: Q01DX009 (ip), vehicle: other, higher = longer survival",91 % of control
same,T/C,"endpoint: median survival time, dose: 3.0 mg/kg/injection, schedule: Q01DX007 (ip), vehicle: other, higher = longer survival",88 % of control
same,T/C,"endpoint: median survival time, dose: 3.0 mg/kg/injection, schedule: Q01DX009 (ip), vehicle: other, higher = longer survival",117 % of control
same,T/C,"endpoint: median survival time, dose: 6.0 mg/kg/injection, schedule: Q01DX007 (ip), vehicle: other, higher = longer survival",93 % of control
same,T/C,"endpoint: median survival time, dose: 6.0 mg/kg/injection, schedule: Q01DX009 (ip), vehicle: other, higher = longer survival",98 % of control
same,T/C,"endpoint: median survival time, dose: 12.0 mg/kg/injection, schedule: Q01DX007 (ip), vehicle: other, higher = longer survival",98 % of control
same,T/C,"endpoint: median survival time, dose: 24.0 mg/kg/injection, schedule: Q01DX007 (ip), vehicle: other, higher = longer survival",91 % of control
same,T/C,"endpoint: median survival time, dose: 24.0 mg/kg/injection, schedule: Q01DX009 (ip), vehicle: other, higher = longer survival",88 % of control
same,T/C,"endpoint: median survival time, dose: 25.0 mg/kg/injection, schedule: Q01DX009 (ip), vehicle: other, higher = longer survival",90 % of control
same,T/C,"endpoint: median survival time, dose: 48.0 mg/kg/injection, schedule: Q01DX007 (ip), vehicle: other, higher = longer survival",107 % of control
same,T/C,[4],105 % of control
C=C(C)C(=O)OCCN(C)C (tested in a mixture with another compound),T/C,[4],102 % of control
same,T/C,"endpoint: median survival time, dose: 100.0 mg/kg/injection, schedule: Q01DX009 (ip), vehicle: other, higher = longer survival",103 % of control
same,T/C,"endpoint: median survival time, dose: 200.0 mg/kg/injection, schedule: Q01DX009 (ip), vehicle: other, higher = longer survival",108 % of control
same,T/C,"endpoint: median survival time, dose: 400.0 mg/kg/injection, schedule: Q01DX009 (ip), vehicle: other, higher = longer survival",102 % of control

# Source: PubChem BioAssay AID270 (DTP/NCI, 2004)
